# According to article PMC5004178, “A novel inhibitory effect of oxazol-5-one compounds on ROCKII signaling in human coronary artery vascular smooth muscle cells” (Scientific Reports, 2016):
# Biological target: T1, ROCKII (Homo sapiens, UniProt O75116)
# T1 construct: gene ROCK2; ROCKII(5–554), constitutively active recombinant
# Assay: […]-phosphoryl transfer kinase assay with LC20 peptide; steady-state kinetics
# Format: biochemical
# T1 sequence (O75116 5-554): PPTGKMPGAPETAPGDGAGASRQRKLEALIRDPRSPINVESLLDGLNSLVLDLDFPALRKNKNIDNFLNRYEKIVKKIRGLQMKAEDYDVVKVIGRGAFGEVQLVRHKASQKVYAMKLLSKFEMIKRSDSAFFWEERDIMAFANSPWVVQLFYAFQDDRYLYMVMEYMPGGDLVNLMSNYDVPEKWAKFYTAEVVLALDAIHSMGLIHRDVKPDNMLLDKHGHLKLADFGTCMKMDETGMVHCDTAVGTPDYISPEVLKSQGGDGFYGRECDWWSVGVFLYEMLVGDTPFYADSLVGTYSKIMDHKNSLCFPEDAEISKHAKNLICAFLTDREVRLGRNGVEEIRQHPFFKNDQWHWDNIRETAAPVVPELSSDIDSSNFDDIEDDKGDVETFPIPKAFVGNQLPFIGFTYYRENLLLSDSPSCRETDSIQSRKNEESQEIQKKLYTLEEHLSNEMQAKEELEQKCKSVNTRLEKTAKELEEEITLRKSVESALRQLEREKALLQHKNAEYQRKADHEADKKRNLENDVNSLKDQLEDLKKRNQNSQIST
smiles,measurement,value
"O=C1OC(c2ccc(Cl)c([N+](=O)[O-])c2)=N/C1=C\c1cccnc1 [DI, (4Z)-2-(4-chloro-3-nitrophenyl)-4-(pyridin-3-ylmethylidene)-1,3-oxazol-5-one]",Ki,132 nM
